Biological target: T1, human p85 SH2 domain (Homo sapiens, UniProt P27986)
T1 construct: made in house; host or cells: E. coli (pGEX-3X)
Experiment: ELISA-based SH2 domain / pY peptide binding assay, p85 SH2 domain
Description: The inhibitory activity of compounds at the different human SH2 domains was determined in vitro using SH2 domains expressed as fusion proteins in E. coli. The SH2 domains used herein were the human forms of the src SH2 domain, Grb2 SH2 domain, lck SH2 domain, fyn SH2 domain, SH-PTP2 SH2 domain, p85 SH2 domain and hcp SH2 domain.
Fusion proteins having the structure GST-X-SH2 were prepared as described in the GST gene fusion kit system available from Pharmacia (New Jersey). GST is the tagging sequence glutathione s-transferase epitope (SEQ ID NO: 8) for fyn, Grb2 and SH-PTP2 and is the tagging sequence glutathione s-transferase epitope (SEQ ID NO: 9) for p85. SH2 refers to the SH2 domains of fyn, Grb2, p85 and SH-PTP2 which were expressed and purified using glutathione Sepharose 4B (Pharmacia) according to "Current Protocols in Molecular Biology", ed. FM Ausubel et al., pub. John Wiley and Sons, Inc., (1995), p 16.7.1. X is an appropriate linker, preferably of 6 to 21 base pairs, used to keep the SH2 construct in frame and complement cloning. As such, the sequence of X is not critical. One skilled in the art can readily construct the appropriate linker. The DNA sequence encoding each GST-X-SH2 fusion protein was designed such that the indicated restriction sites (BamH1 and EcoRI) flank the SH2 region. […]

T1 sequence (P27986 321-440): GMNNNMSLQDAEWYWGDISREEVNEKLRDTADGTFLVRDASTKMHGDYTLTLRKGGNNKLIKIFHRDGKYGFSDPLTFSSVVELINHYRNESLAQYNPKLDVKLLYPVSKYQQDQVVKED

CCCCCCNC(=O)[C@H]1CC[C@H](CNC(=O)c2ccc(C(=O)c3ccc(C(=O)O)cc3)cc2)CC1 [Compound 6, 4-carboxy-benzophenone-4-carboxamido-trans-4-methyl-cyclohexyl-N-hexyl carboxamide]
Ki (Ki calculated from IC50 with the expanded equation): > 1000 µM
IC50 (inhibition of binding of 0.1 uM biotinylated pY peptide to SH2 domain fusion protein): > 300 µM
